We go through eight molecules from ChEMBL document CHEMBL1201862, “PubChem BioAssay data set” (2004).

The source made the active and inactive calls. Bounds are passed on as bounds.

The target in assay [1] is T1, Type-1 angiotensin II receptor (Homo sapiens, UniProt P30556).
T1 sequence (P30556 whole entry): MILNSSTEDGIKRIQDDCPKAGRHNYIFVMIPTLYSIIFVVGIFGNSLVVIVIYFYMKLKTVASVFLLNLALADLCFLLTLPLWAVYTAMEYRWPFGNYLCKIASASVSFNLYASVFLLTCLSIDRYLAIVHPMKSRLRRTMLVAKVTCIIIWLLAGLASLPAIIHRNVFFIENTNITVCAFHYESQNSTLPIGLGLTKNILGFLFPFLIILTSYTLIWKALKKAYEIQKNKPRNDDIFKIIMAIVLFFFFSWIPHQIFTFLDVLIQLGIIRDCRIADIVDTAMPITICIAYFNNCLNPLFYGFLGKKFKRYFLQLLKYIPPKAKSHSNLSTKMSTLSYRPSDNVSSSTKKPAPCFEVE
As to the kind of experiment: AT1 receptor agonists, dose response, selectivity assay for APJ receptor agonist project, cell-based, uHTS hits (AID 488865).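 Also: beta-arrestin recruitment to AT1 measured by enzyme fragment complementation luminescence.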 The format is functional.

Assay [2] addresses 5-hydroxytryptamine receptor 2A (Mus musculus, UniProt P35363). The format is functional, cell-based.
Assay [3] concerns the target T2, Mannose-6-phosphate isomerase (Homo sapiens, UniProt P34949).
T2 sequence (P34949 whole entry): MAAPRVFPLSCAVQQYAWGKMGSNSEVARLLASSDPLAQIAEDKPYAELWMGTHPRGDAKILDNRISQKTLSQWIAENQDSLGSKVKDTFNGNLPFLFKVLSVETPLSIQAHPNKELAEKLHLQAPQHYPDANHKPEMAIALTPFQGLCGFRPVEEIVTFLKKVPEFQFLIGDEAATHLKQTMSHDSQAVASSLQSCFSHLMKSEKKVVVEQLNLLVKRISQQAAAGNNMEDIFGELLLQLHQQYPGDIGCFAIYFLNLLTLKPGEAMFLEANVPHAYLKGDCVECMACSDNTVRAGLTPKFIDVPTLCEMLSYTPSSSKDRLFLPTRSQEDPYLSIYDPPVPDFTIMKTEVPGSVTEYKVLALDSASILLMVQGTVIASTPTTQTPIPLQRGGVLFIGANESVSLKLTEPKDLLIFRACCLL
As to the kind of experiment: PMI enzyme inhibitors, confirmation, biochemical, fluorescence intensity (AID 1535).

Assay [4] concerns the target T3, Hexokinase (Trypanosoma brucei, UniProt Q38C41).
T3 sequence (Q38C41 whole entry): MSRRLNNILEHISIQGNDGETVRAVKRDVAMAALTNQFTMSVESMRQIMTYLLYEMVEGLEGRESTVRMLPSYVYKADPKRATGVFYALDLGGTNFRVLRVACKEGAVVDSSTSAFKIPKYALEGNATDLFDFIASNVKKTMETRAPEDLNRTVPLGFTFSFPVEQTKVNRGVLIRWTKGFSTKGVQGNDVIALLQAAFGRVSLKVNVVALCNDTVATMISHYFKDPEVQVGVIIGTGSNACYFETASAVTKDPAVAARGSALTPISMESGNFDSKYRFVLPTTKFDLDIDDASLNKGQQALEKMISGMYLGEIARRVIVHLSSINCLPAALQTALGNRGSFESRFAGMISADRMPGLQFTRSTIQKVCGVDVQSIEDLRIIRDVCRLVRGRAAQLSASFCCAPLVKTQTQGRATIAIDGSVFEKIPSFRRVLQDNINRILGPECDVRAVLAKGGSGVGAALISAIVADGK
As to the kind of experiment: Confirmation assay for inhibitors of Trypanosoma brucei hexokinase 1-Analogue-first series. [Related pubchem assays (depositor defined):AID1430, AID1632, AID2516, AID2560, AID2579, AID2600, AID449725, AID492951]. It is filed as functional.

Assay [5] has as its target Glucose-6-phosphate 1-dehydrogenase (Homo sapiens, UniProt P11413). As to the kind of experiment: human G6PD enzyme inhibitors, dose response, selectivity assay for P. falciparum G6PD inhibitor project, biochemical, fluorescence (AID 504792). It is filed as functional.
The target in assay [6] is Phosphomannomutase 2 (Homo sapiens, UniProt O15305). As to the kind of experiment: Counter screen SAR assay for PMM2 inhibitors via a fluorescence intensity assay. [Related pubchem assays (depositor defined):AID1545, AID1574]. (In general: Counterscreens check selectivity or assay interference.)
Assay [7] deals with Phosphoethanolamine/phosphocholine phosphatase (Homo sapiens, UniProt Q8TCT1). As to the kind of experiment: SAR assay for compounds that inhibit PHOSPHO1. [Related pubchem assays (depositor defined):AID1545, AID1565, AID1574].
Assay [8] has as its target Mitochondrial peptide methionine sulfoxide reductase (Bos taurus, UniProt P54149). As to the kind of experiment: Absorbance-based biochemical high throughput dose response assay for activators of Methionine sulfoxide reductase A (MsrA). The format is functional.
Assay [9] in a line: HeLa cell cytotoxicity, dose response, cytotoxicity control for MgcRacGAP inhibitor project (AID 624300). It is filed as functional.
Assay [10] addresses T4, Rac GTPase-activating protein 1 (Homo sapiens, UniProt Q9H0H5).
T4 sequence (Q9H0H5 whole entry): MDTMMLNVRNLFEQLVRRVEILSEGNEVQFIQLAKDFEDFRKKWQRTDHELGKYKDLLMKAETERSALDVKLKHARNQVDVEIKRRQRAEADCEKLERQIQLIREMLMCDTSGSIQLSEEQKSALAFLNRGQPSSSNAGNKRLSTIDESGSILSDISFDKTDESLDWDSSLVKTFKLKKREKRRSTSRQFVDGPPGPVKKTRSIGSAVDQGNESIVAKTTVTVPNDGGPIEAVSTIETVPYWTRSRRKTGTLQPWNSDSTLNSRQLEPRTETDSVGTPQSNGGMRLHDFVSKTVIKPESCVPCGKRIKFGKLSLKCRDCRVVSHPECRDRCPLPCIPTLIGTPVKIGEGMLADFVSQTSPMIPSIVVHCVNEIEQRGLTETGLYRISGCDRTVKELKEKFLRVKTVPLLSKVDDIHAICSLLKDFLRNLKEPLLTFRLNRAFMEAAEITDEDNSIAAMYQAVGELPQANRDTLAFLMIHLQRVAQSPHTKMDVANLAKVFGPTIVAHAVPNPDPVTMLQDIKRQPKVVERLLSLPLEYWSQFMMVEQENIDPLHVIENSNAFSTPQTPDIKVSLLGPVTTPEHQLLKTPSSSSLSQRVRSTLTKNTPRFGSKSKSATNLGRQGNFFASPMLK
As to the kind of experiment: MgcRacGAP GTPase-activating activity inhibitors, confirmation, biochemical, ADP Hunter fluorescence, primary and confirmatory (AID 624330). The format is functional.

Assay [11] concerns Vero. As to the kind of experiment: cytotoxicity of synthesized analogs in Vero 76, SAR follow-up, cytotoxicity control for West Nile virus antiviral project, Vero 76 cells (AID 2414). The format is functional. The note with it: Chlorocebus sabaeus.
The subject of assay [12] is Vero. As to the kind of experiment: cytotoxicity of synthesized analogs in Vero cells, SAR follow-up, cytotoxicity control for West Nile virus antiviral project, cell-based, set II (AID 2402). Particulars: Chlorocebus sabaeus. It is filed as functional.
Assay [13] has as its system Vero. As to the kind of experiment: Vero E6 cell cytotoxicity, SAR follow-up, cytotoxicity control for West Nile virus antiviral project, synthesized analogs (AID 2244). It is filed as functional. Particulars: Chlorocebus sabaeus.
Assay [14] in a line: A Cell Based Assay for the Identification of Probe candidate Compounds with Anti- Venezuelan Equine Encephalitis virus. [Related pubchem assays: 2409, 2419, 1621, 2238, 2405, 2024, 2065, 2402, 2414, 1635, 1650, 2244 ]. It is filed as functional.
Assay [15] relates to Vero. As to the kind of experiment: West Nile virus CPE inhibition, SAR follow-up, cell-based, synthesized analogs (AID 2238). The format is functional. The note with it: Chlorocebus sabaeus.
For assay [16], the target named is Eukaryotic translation initiation factor 4H (Homo sapiens, UniProt Q15056). As to the kind of experiment: eIF4H inhibition in translation initiation, SAR follow-up (AID 435011). It is filed as functional.
The target of assay [17] is Polyadenylate-binding protein 1 (Homo sapiens, UniProt P11940). As to the kind of experiment: PABP inhibition in translation initiation, SAR follow-up (AID 435018). The format is functional.
Assay [18] has as its target T5, Tyrosine-protein phosphatase non-receptor type 7 (Homo sapiens, UniProt P35236).
T5 sequence (P35236 whole entry): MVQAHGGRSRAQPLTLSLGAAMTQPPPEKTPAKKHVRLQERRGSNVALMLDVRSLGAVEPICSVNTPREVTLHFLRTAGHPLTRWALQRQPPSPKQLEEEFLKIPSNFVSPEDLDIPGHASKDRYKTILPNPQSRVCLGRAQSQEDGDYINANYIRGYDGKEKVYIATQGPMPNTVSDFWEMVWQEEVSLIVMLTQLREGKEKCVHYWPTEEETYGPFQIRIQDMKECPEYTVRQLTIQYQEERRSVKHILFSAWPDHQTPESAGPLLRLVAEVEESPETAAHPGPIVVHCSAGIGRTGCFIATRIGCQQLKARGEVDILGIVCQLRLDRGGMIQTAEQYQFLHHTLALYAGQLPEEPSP
As to the kind of experiment: Dose Response confirmation of compounds that inhibit HePTP. [Related pubchem assays (depositor defined):AID1059, AID1661, AID2085]. It is filed as functional.

In assay [19] the target is T6, Dual specificity protein phosphatase 3 (Homo sapiens, UniProt P51452). As to the kind of experiment: Dose Response Confirmation of compounds that inhibit VHR1 in Fluorescent Assay. [Related pubchem assays (depositor defined):AID1661, AID1878]. The format is functional.
In assay [20] the target is Ephrin type-A receptor 4 (Mus musculus, UniProt Q03137). As to the kind of experiment: inhibitors of EphA4 binding to KYL peptide, primary screen, biochemical, colorimetric, mouse EphA4 (AID 689). It is filed as functional.
The target of assay [21] is Induced myeloid leukemia cell differentiation protein Mcl-1 (Homo sapiens, UniProt Q07820). The format is functional.
Assay [22] has as its target T5, Tyrosine-protein phosphatase non-receptor type 7. As to the kind of experiment: redox-dependent HePTP inhibition, mechanism study, biochemical, fluorescence (AID 2068). The format is functional.
Assay [23] is described as follows: cytotoxicity in HPDE-C7 cells, cell-based, fluorescence, HTS (AID 430). It is filed as functional. The note with it: Homo sapiens.
Assay [24] in a line: cytotoxicity in KRAS-transformed pancreatic duct cells, primary screen, cell-based, fluorescence, HTS (AID 431).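 Also: cell line used: HPDE-C7K.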 The format is functional. Particulars: Homo sapiens.
In assay [25] the target is G-protein coupled receptor 55 (Homo sapiens, UniProt Q9Y2T6). As to the kind of experiment: GPR55 agonists via beta-arrestin recruitment, primary screen, imaging, U2OS cells, beta-arrestin-GFP redistribution (AID 1961). The format is functional.
Assay [26] deals with T5, Tyrosine-protein phosphatase non-receptor type 7. As to the kind of experiment: SAR analysis of chemical inhibitors of HePTP using a Fluorescent assay - Set 2. [Related pubchem assays (depositor defined):AID1059, AID1077, AID1661, AID2085, AID521]. It is filed as functional.
Assay [27] concerns the target T6, Dual specificity protein phosphatase 3. As to the kind of experiment: SAR VHR1 Fluorescent Assay for In Vitro dose response studies Set 2. [Related pubchem assays (depositor defined):AID1654, AID1661, AID1878]. The format is functional.

T6 sequence (P51452 whole entry): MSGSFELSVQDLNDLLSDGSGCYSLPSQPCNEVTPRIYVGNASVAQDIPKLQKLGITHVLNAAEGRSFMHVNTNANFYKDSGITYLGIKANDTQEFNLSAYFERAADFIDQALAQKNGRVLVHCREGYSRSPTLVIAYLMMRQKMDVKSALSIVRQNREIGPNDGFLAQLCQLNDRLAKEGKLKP
Sequence of Glucose-6-phosphate 1-dehydrogenase (P11413 whole entry): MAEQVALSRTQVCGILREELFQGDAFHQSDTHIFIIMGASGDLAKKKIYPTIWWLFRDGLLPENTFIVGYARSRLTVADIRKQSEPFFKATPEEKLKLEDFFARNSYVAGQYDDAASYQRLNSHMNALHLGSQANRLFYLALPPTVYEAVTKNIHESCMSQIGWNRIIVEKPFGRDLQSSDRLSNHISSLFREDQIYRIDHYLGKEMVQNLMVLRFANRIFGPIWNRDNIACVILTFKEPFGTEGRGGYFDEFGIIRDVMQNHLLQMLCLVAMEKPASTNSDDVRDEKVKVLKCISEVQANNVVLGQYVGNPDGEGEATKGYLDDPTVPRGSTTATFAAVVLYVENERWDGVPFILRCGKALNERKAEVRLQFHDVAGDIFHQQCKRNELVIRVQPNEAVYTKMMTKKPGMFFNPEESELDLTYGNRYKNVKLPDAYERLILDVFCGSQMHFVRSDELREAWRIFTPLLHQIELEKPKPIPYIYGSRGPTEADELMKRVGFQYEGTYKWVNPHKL
Sequence of Induced myeloid leukemia cell differentiation protein Mcl-1 (Q07820 whole entry): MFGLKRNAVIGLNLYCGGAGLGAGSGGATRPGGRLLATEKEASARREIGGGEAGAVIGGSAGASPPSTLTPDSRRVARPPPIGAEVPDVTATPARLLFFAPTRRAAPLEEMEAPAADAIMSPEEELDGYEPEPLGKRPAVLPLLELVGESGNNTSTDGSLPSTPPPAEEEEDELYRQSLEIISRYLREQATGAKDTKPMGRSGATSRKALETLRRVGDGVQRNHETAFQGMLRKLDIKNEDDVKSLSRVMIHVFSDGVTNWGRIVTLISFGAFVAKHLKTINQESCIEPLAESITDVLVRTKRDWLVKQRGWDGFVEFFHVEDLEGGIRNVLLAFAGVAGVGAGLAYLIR
Sequence of Phosphoethanolamine/phosphocholine phosphatase (Q8TCT1 whole entry): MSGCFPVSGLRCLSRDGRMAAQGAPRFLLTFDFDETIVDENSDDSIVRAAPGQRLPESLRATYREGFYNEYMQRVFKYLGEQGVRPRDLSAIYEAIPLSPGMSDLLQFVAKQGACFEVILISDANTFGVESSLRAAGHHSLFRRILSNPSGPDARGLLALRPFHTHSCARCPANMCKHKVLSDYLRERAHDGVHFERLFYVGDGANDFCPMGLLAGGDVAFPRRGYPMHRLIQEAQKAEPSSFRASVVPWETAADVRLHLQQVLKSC
Sequence of G-protein coupled receptor 55 (Q9Y2T6 whole entry): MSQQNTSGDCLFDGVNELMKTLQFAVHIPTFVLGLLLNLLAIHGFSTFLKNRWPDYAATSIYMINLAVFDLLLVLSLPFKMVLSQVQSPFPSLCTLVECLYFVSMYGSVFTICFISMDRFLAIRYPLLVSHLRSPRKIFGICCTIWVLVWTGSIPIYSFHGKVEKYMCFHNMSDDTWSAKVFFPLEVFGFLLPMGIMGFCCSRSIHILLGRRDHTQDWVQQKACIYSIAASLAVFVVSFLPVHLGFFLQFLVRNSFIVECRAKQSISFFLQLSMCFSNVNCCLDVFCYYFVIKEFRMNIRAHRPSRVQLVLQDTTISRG
Sequence of Polyadenylate-binding protein 1 (P11940 whole entry): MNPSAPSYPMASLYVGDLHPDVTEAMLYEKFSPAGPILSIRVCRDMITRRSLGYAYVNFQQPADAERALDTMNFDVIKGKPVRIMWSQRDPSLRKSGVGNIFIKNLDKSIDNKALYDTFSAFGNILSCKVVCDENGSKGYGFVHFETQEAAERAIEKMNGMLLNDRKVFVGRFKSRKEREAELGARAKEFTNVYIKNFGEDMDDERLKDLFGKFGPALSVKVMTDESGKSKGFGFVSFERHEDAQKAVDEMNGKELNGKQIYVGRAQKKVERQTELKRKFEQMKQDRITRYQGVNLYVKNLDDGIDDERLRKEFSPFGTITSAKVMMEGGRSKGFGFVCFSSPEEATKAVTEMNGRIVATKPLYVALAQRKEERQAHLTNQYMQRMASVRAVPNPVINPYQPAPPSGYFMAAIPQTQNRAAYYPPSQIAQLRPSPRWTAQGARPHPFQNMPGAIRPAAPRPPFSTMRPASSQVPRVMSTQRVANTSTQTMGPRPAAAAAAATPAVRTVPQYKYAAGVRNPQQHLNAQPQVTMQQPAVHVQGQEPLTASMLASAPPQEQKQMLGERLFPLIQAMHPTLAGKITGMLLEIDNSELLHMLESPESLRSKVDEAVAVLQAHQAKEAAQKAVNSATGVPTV
Sequence of Mitochondrial peptide methionine sulfoxide reductase (P54149 whole entry): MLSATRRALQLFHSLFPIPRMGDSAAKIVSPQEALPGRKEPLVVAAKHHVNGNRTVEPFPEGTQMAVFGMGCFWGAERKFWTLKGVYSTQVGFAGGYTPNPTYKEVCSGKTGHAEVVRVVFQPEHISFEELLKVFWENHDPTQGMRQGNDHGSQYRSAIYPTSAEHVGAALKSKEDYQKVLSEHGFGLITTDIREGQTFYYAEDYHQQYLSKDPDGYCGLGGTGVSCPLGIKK
Sequence of Ephrin type-A receptor 4 (Q03137 whole entry): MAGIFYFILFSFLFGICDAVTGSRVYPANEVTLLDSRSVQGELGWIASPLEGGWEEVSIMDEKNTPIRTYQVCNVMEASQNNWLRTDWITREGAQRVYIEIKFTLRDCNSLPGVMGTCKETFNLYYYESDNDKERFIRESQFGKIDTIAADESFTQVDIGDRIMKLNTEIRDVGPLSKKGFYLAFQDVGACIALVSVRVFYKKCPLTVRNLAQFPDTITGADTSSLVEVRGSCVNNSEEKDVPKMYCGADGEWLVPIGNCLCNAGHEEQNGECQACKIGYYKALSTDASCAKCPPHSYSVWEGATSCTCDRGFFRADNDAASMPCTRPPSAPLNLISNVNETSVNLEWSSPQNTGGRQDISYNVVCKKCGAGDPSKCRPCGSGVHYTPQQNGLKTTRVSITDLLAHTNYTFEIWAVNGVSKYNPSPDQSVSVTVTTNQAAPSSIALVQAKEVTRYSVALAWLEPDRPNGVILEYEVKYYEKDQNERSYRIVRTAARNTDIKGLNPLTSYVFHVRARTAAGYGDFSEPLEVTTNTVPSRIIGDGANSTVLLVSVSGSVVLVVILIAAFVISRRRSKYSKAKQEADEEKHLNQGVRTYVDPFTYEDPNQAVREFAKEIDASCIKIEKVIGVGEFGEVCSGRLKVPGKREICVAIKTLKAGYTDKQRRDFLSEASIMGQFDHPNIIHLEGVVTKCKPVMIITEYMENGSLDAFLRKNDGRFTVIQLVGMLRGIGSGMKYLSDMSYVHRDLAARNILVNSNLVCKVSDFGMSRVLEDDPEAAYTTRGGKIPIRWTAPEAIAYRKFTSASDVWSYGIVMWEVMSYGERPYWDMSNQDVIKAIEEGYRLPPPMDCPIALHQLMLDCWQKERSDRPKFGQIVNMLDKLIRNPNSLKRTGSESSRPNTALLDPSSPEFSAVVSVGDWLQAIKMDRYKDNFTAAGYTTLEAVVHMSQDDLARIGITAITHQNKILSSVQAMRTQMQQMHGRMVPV
Sequence of Phosphomannomutase 2 (O15305 whole entry): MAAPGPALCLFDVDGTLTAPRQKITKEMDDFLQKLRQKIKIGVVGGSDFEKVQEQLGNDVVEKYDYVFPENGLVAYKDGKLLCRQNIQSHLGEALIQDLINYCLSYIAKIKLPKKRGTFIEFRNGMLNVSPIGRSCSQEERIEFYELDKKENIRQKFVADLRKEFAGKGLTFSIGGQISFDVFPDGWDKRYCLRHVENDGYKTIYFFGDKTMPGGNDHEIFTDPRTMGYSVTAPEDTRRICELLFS
Sequence of 5-hydroxytryptamine receptor 2A (P35363 whole entry): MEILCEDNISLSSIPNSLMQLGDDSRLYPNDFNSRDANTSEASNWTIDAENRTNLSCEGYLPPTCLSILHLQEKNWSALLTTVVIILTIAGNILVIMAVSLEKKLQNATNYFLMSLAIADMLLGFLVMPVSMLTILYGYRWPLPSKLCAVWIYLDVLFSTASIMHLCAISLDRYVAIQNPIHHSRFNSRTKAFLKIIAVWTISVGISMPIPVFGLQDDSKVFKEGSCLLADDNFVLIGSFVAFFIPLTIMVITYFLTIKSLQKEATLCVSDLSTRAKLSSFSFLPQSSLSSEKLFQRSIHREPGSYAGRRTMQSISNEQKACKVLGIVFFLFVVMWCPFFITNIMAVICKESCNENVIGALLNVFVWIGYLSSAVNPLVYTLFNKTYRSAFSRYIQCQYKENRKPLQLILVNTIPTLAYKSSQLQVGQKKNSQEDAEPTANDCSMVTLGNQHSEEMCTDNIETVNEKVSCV

As for `COC(=O)C1=C(Cn2cnc3ccccc32)NC(=O)NC1c1cc(C)ccc1C` (configuration not stated), the EC50 in [1] was > 100 µM (inactive); in assay [2], 8.44 µM (active).
For `O=c1c2ccccc2sn1-c1cccc(Cl)c1`, the IC50 is 3.43 µM (active) in assay [3]; 1.9 µM (active) in assay [4]; 13 µM (active) in [5]; 59.6 µM (active) in assay [6]; 5.21 µM (inactive) in [7]; 33.9 µM (active) in assay [10]. Further, in [8], the EC50 was > 104 µM (inactive). Besides, the CC50 in assay [9] is 100 µM (active).
Take `O=C(CSc1nc2ccccc2c(=O)n1-c1ccc(Cl)cc1)Nc1ccc2c(c1)CCC2`: the values for the CC50 in assay [11], in assay [12] and in assay [13] were > 66.6 µM (active), > 100 µM (active) and > 40 µM (active), respectively. The concentration for half-maximal inhibition (IC50) in assay [14] was 7.56 µM (active); in [15] it was > 40 µM (active).
Take `COc1ccc([N+](=O)[O-])cc1NC(=O)C(C)OC(=O)c1ccccc1C(=O)c1ccc(Cl)cc1` (configuration not stated): the IC50 in [16] and in assay [17] was > 100 µM (inactive) throughout.
On to `Cn1c2ccccc2c(=O)c2ccc(C#Cc3ccccn3)cc21`, for which the half-inhibitory concentration (IC50) is 6.64 µM (active) in assay [18] and 7.2 µM (active) in [19].
On to `O=S(=O)(c1ccc2nc(-c3ccco3)c(-c3ccco3)nc2c1)N1CCOCC1`, for which the IC50 in [20] is 21.5 µM (active); in assay [21], 5.65 µM (active); in assay [22], 7.46 µM (active).
In the case of `CC/C(Nc1ccc(OC)cc1OC)=C1/C(=O)NC(=O)N(C2CCCCC2)C1=O`, the figures for the EC50 in assay [23], in assay [24] and in [25] were 12.8 µM (active), 16.3 µM (active) and 10.9 µM (inactive), respectively.
`O=S(=O)(Nc1ncccn1)c1ccc(NC(=S)N2CCN(Cc3ccc4c(c3)OCO4)CC2)cc1`: the IC50 in [26] and in assay [27] was > 100 µM (inactive) throughout.

A word on the EC50: it is the midpoint of the concentration-response curve. What is called IC50 is the midpoint of a concentration-inhibition curve. As a reminder, the CC50 is the concentration giving 50% cytotoxicity.
